Measurements taken from the NIST ThermoML archive (doi:10.1021/je060271a).

Conditions: 283.15 K, Liquid, Vibrating tube method

CCCCC(=O)OCC(COC(=O)CCCC)(COC(=O)CCCC)COC(=O)CCCC [pentaerythritol tetrapentanoate]
Conditions | mass density [kg/m3]
11059 kPa | 1033.4
11099 kPa | 1033.5
11132 kPa | 1033.6
11173 kPa | 1033.5
11207 kPa | 1033.7
11241 kPa | 1033.5
11283 kPa | 1033.7
11318 kPa | 1033.6
11354 kPa | 1033.6
11389 kPa | 1033.7
11432 kPa | 1033.7
11468 kPa | 1033.7
11505 kPa | 1033.8
11549 kPa | 1033.8
11586 kPa | 1033.7
11623 kPa | 1033.9
11661 kPa | 1033.8
11706 kPa | 1034
11743 kPa | 1033.8
11782 kPa | 1033.9
11828 kPa | 1034
11867 kPa | 1033.9
11906 kPa | 1033.9
11992 kPa | 1034.1
12032 kPa | 1034
12080 kPa | 1034.1
12120 kPa | 1034.1
12161 kPa | 1034.1
12211 kPa | 1034.3
12253 kPa | 1034.1
12295 kPa | 1034
12348 kPa | 1034.2
12392 kPa | 1034.2
12436 kPa | 1034.2
12474 kPa | 1034.3
12515 kPa | 1034.4
12549 kPa | 1034.3
12589 kPa | 1034.4
12624 kPa | 1034.4
12659 kPa | 1034.5
12695 kPa | 1034.5
12739 kPa | 1034.4
12775 kPa | 1034.3
12815 kPa | 1034.6
12841 kPa | 1034.5
12867 kPa | 1034.5
12897 kPa | 1034.5
12922 kPa | 1034.5
12949 kPa | 1034.5
12974 kPa | 1034.6
13005 kPa | 1034.5
13031 kPa | 1034.6
13058 kPa | 1034.5
13089 kPa | 1034.5
13115 kPa | 1034.7
13142 kPa | 1034.6
13174 kPa | 1034.6
13203 kPa | 1034.7
13230 kPa | 1034.9
13257 kPa | 1034.7
13285 kPa | 1034.8
13317 kPa | 1034.8
13344 kPa | 1034.8
13377 kPa | 1034.8
13404 kPa | 1034.8
13432 kPa | 1034.8
13460 kPa | 1034.9
13493 kPa | 1034.9
13521 kPa | 1034.9
13551 kPa | 1034.9
13580 kPa | 1035
13615 kPa | 1034.9
13643 kPa | 1034.9
13672 kPa | 1035.1
13701 kPa | 1035
13736 kPa | 1035
13764 kPa | 1035.1
13794 kPa | 1035
13829 kPa | 1035.1
13858 kPa | 1035.1
13893 kPa | 1035.1
13923 kPa | 1035.1
13954 kPa | 1035.2
13984 kPa | 1035.2
14021 kPa | 1035.1
14051 kPa | 1035.3
14082 kPa | 1035.2
14118 kPa | 1035.2
14148 kPa | 1035.3
14186 kPa | 1035.3
14216 kPa | 1035.4
14248 kPa | 1035.3
14279 kPa | 1035.4
14317 kPa | 1035.3
14348 kPa | 1035.4
14380 kPa | 1035.4
14419 kPa | 1035.5
14451 kPa | 1035.4
14490 kPa | 1035.4
14522 kPa | 1035.5
14555 kPa | 1035.4
14588 kPa | 1035.5
14628 kPa | 1035.4
14660 kPa | 1035.5
14694 kPa | 1035.6
14735 kPa | 1035.6
14768 kPa | 1035.7
14808 kPa | 1035.6
14842 kPa | 1035.6
14877 kPa | 1035.7
14912 kPa | 1035.6
14954 kPa | 1035.8
14989 kPa | 1035.5
15024 kPa | 1035.7
15066 kPa | 1035.6
15101 kPa | 1035.7
15137 kPa | 1035.8
15180 kPa | 1035.8
15216 kPa | 1035.8
15252 kPa | 1035.9
15295 kPa | 1036
15333 kPa | 1035.8
15369 kPa | 1036
15414 kPa | 1036.1
15451 kPa | 1036
15488 kPa | 1036
15525 kPa | 1036
15571 kPa | 1036
15609 kPa | 1036.1
15648 kPa | 1036
15694 kPa | 1036.2
15732 kPa | 1036.1
15772 kPa | 1036.1
15819 kPa | 1036.1
15859 kPa | 1036.1
15899 kPa | 1036.2
15938 kPa | 1036.2
15986 kPa | 1036.2
16026 kPa | 1036.4
16067 kPa | 1036.3
16116 kPa | 1036.3
16157 kPa | 1036.3
16199 kPa | 1036.4
16241 kPa | 1036.4
16291 kPa | 1036.5
16333 kPa | 1036.4
16376 kPa | 1036.5
16421 kPa | 1036.5
16472 kPa | 1036.6
16515 kPa | 1036.6
16559 kPa | 1036.5
16611 kPa | 1036.4
16655 kPa | 1036.6
16699 kPa | 1036.7
16753 kPa | 1036.8
16798 kPa | 1036.7
16844 kPa | 1036.7
16900 kPa | 1036.7
16949 kPa | 1036.8
17000 kPa | 1036.7
17050 kPa | 1036.9
